Measurements reported in publication PMC12203311, “Design, synthesis, in silico and in vitro evaluation of pyrrole–indole hybrids as dual tubulin and aromatase inhibitors with potent anticancer activities” (RSC Advances, 2025).
Each block holds one compound with its values, some of them ahead of it.

How the values were obtained:
UACC-257 = test: NCI60 five-dose screen; type: cell-based; settings: Homo sapiens, UACC-257, melanoma; for CC50: read-out: LC50 (the source's name)
SK-MEL-28 = test: NCI60 five-dose screen; type: cell-based; settings: Homo sapiens, SK-MEL-28, melanoma; for CC50: read-out: LC50 (the source's name)
OVCAR-5 = test: NCI60 five-dose screen; type: cell-based; settings: Homo sapiens, OVCAR-5, ovarian cancer; for CC50: read-out: LC50 (the source's name)
MDA-MB-231/ATCC = test: NCI60 five-dose screen; type: cell-based; settings: Homo sapiens, breast cancer; for CC50: read-out: LC50 (the source's name)
T-47D = test: NCI60 five-dose screen; type: cell-based; settings: Homo sapiens, T47D, breast cancer; for CC50: read-out: LC50 (the source's name)
TK-10 = test: NCI60 five-dose screen; type: cell-based; settings: Homo sapiens, TK-10, renal cancer; for CC50: read-out: LC50 (the source's name)
NCI-H322M = test: NCI60 five-dose screen; type: cell-based; settings: Homo sapiens, NSC lung cancer; for CC50: read-out: LC50 (the source's name)
RPMI-8226 = test: NCI60 five-dose screen; type: cell-based; settings: Homo sapiens, RPMI-8226, leukemia; for CC50: read-out: LC50 (the source's name)
Human CYP19 (aromatase) = molecular target: T1, Human CYP19 (aromatase) (Homo sapiens, UniProt P11511); test: Aromatase inhibition assay (DBF fluorometric substrate); type: biochemical; settings: active defined as IC50 < 12.5 µM
T1 construct: purchased GENTEST, Woburn, MA 456260; host or cells: baculovirus/insect cells
T1 sequence (P11511 1-503): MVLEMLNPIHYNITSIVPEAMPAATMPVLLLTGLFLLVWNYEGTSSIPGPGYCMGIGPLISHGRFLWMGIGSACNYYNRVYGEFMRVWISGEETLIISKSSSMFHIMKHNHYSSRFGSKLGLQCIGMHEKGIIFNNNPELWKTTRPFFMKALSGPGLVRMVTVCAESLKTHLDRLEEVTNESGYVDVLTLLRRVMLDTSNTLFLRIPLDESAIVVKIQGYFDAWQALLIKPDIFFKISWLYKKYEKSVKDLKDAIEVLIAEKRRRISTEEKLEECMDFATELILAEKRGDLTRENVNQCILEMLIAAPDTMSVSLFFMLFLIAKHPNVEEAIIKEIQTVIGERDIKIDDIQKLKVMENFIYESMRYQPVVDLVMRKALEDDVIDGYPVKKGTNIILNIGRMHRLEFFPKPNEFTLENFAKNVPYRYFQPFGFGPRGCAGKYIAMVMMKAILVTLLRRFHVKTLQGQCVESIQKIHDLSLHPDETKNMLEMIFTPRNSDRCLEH
Procedure: Aromatase enzyme was purchased from GENTEST, Woburn, MA01801, USA (Supersom human CYP19+oxidoreductase, baculovirus/insect cell-expressed; Product No. 456260). The aromatase inhibitory activity was performed using Human CYP19 enzymes and DBF as a fluorometric substrate as described by Stresser, et al.[41] with minor modifications. The mixture, containing 100 µL of cofactor/serial dilution buffer was pre-incubated in 37 °C for 10 min. […] After incubation at 37 °C for 30 min, the reaction was stopped by addition of 50 µL of 2.2 M NaOH. Fluorescence signal was monitored using an excitation wavelength of 490 nm and emission wavelength of 530 nm.

HS 578T = test: NCI60 five-dose screen; type: cell-based; settings: Homo sapiens, breast cancer; for CC50: read-out: LC50 (the source's name)
SN12C = test: NCI60 five-dose screen; type: cell-based; settings: Homo sapiens, renal cancer; for CC50: read-out: LC50 (the source's name)
U251 = test: NCI60 five-dose screen; type: cell-based; settings: Homo sapiens, U-251, U251, CNS cancer; for CC50: read-out: LC50 (the source's name)
MDA-MB-468 = test: NCI60 five-dose screen; type: cell-based; settings: Homo sapiens, MDA-MB-468, breast cancer; for CC50: read-out: LC50 (the source's name)
SNB-19 = test: NCI60 five-dose screen; type: cell-based; settings: Homo sapiens, SNB-19, CNS cancer; for CC50: read-out: LC50 (the source's name)
SK-OV-3 = test: NCI60 five-dose screen; type: cell-based; settings: Homo sapiens, SK-OV-3, ovarian cancer; for CC50: read-out: LC50 (the source's name)
HCC-2998 = test: NCI60 five-dose screen; type: cell-based; settings: Homo sapiens, HCC-2998, colon cancer; for CC50: read-out: LC50 (the source's name)
KM12 = test: NCI60 five-dose screen; type: cell-based; settings: Homo sapiens, KM12, colon cancer; for CC50: read-out: LC50 (the source's name)
CCRF-CEM = test: NCI60 five-dose screen; type: cell-based; settings: Homo sapiens, leukemia; for CC50: read-out: LC50 (the source's name)
HL-60 (TB) = test: NCI60 five-dose screen; type: cell-based; settings: Homo sapiens, leukemia; for CC50: read-out: LC50 (the source's name)
SF-295 = test: NCI60 five-dose screen; type: cell-based; settings: Homo sapiens, SF-295, CNS cancer; for CC50: read-out: LC50 (the source's name)
NCI/ADR-RES = test: NCI60 five-dose screen; type: cell-based, human; settings: Homo sapiens, ovarian cancer
MALME-3M = test: NCI60 five-dose screen; type: cell-based; settings: Homo sapiens, melanoma; for CC50: read-out: LC50 (the source's name)
SF-268 = test: NCI60 five-dose screen; type: cell-based; settings: Homo sapiens, SF-268, CNS cancer; for CC50: read-out: LC50 (the source's name)
OVCAR-8 = test: NCI60 five-dose screen; type: cell-based; settings: Homo sapiens, OVCAR-8, ovarian cancer; for CC50: read-out: LC50 (the source's name)
SW-620 = test: NCI60 five-dose screen; type: cell-based; settings: Homo sapiens, SW-620, colon cancer; for CC50: read-out: LC50 (the source's name)
NCI-H522 = test: NCI60 five-dose screen; type: cell-based; settings: Homo sapiens, NCI-H522, NSC lung cancer; for CC50: read-out: LC50 (the source's name)
MOLT-4 = test: NCI60 five-dose screen; type: cell-based; settings: Homo sapiens, MOLT-4, leukemia
[1] = read-out: LC50 (the source's name)

IC50 (Human CYP19 (aromatase)): 1.8 ± 0.4 µM
Structure (SMILES): O=C(N/N=C/c1cc(Cl)c[nH]1)c1[nH]c2ccc(Br)cc2c1-c1ccccc1 [Derivative 3h, (E)-5-Bromo-N′-((4-chloro-1H-pyrrol-2-yl)methylene)-3-phenyl-1H-indole-2-carbohydrazide]
GI50 (UACC-257): 0.856 µM
CC50 (UACC-257): 58.8 µM
GI50 (SK-MEL-28): 0.582 µM
CC50 (SK-MEL-28): 47.9 µM
GI50 (OVCAR-5): 0.473 µM
CC50 (OVCAR-5): 36 µM
GI50 (MDA-MB-231/ATCC): 0.296 µM
CC50 (MDA-MB-231/ATCC): 26.9 µM
GI50 (T-47D): 0.546 µM
CC50 (T-47D): 92.6 µM
GI50 (TK-10): 3.91 µM
CC50 (TK-10): 83.2 µM
GI50 (NCI-H322M): 0.768 µM
CC50 (NCI-H322M): 92.3 µM
GI50 (RPMI-8226): 0.446 µM
CC50 (RPMI-8226): > 100 µM
GI50 (HS 578T): 0.284 µM
CC50 (HS 578T): > 100 µM
GI50 (SN12C): 0.391 µM
CC50 (SN12C): 15.3 µM
GI50 (U251): 0.349 µM
CC50 (U251): 24.9 µM
GI50 (MDA-MB-468): 0.251 µM
CC50 (MDA-MB-468): 27.8 µM
GI50 (SNB-19): 0.638 µM
CC50 (SNB-19): 61.9 µM
GI50 (SK-OV-3): 0.519 µM
CC50 (SK-OV-3): 45.4 µM
GI50 (HCC-2998): 0.224 µM
CC50 (HCC-2998): 4.2 µM
GI50 (KM12): 0.328 µM
CC50 (KM12): 20.7 µM
GI50 (CCRF-CEM): 0.132 µM
CC50 (CCRF-CEM): > 100 µM
GI50 (HL-60 (TB)): 0.185 µM
CC50 (HL-60 (TB)): 0.886 µM
GI50 (SF-295): 0.237 µM
CC50 (SF-295): 58.5 µM
GI50 (NCI/ADR-RES): 0.2 µM
GI50 (MALME-3M): 0.645 µM
CC50 (MALME-3M): 46.1 µM
GI50 (SF-268): 0.388 µM
CC50 (SF-268): 77.3 µM
GI50 (OVCAR-8): 0.214 µM
CC50 (OVCAR-8): 0.988 µM
GI50 (SW-620): 0.328 µM
CC50 (SW-620): 80.9 µM
GI50 (NCI-H522): 0.211 µM
CC50 (NCI-H522): > 100 µM
GI50 (MOLT-4): 0.283 µM

IC50 (Human CYP19 (aromatase)): 3.3 ± 0.6 µM
Structure (SMILES): O=C(N/N=C/c1ccc(C(=O)N2CCOCC2)[nH]1)c1[nH]c2ccc(Br)cc2c1-c1ccccc1 [Derivative 3n, (E)-5-Bromo-N′-((5-(morpholine-4-carbonyl)-1H-pyrrol-2-yl)methylene)-3-phenyl-1H-indole-2-carbohydrazide]
GI50 (UACC-257): 11.9 µM
CC50 (UACC-257): 94.4 µM
GI50 (SK-MEL-28): 6.1 µM
CC50 (SK-MEL-28): > 100 µM
GI50 (OVCAR-5): 5.78 µM
CC50 (OVCAR-5): > 100 µM
GI50 (MDA-MB-231/ATCC): 4.81 µM
CC50 (MDA-MB-231/ATCC): 83.2 µM
GI50 (T-47D): 3.1 µM
CC50 (T-47D): > 100 µM
GI50 (TK-10): 10.4 µM
CC50 (TK-10): > 100 µM
GI50 (NCI-H322M): 13.9 µM
CC50 (NCI-H322M): > 100 µM
GI50 (RPMI-8226): 4.5 µM
CC50 (RPMI-8226): > 100 µM
GI50 (HS 578T): 1.04 µM
CC50 (HS 578T): > 100 µM
GI50 (SN12C): 3.14 µM
CC50 (SN12C): 79.7 µM
GI50 (U251): 3.1 µM
CC50 (U251): 84.7 µM
GI50 (MDA-MB-468): 1.98 µM
CC50 (MDA-MB-468): 75.5 µM
GI50 (SNB-19): 5.66 µM
CC50 (SNB-19): > 100 µM
GI50 (SK-OV-3): 5.68 µM
CC50 (SK-OV-3): > 100 µM
GI50 (HCC-2998): 2.31 µM
CC50 (HCC-2998): 42.9 µM
GI50 (KM12): 2.91 µM
CC50 (KM12): 43.6 µM
GI50 (CCRF-CEM): 3.45 µM
CC50 (CCRF-CEM): > 100 µM
GI50 (HL-60 (TB)): 1.84 µM
CC50 (HL-60 (TB)): 8.56 µM
GI50 (SF-295): 1.63 µM
CC50 (SF-295): 31 µM
GI50 (NCI/ADR-RES): 1.92 µM
CC50 (NCI/ADR-RES; [1]): 84.1 µM
GI50 (MALME-3M): 11.7 µM
CC50 (MALME-3M): > 100 µM
GI50 (SF-268): 2.51 µM
CC50 (SF-268): > 100 µM
GI50 (OVCAR-8): 2.86 µM
CC50 (OVCAR-8): 43.1 µM
GI50 (SW-620): 3.26 µM
CC50 (SW-620): > 100 µM
GI50 (NCI-H522): 1.6 µM
CC50 (NCI-H522): 58.8 µM
GI50 (MOLT-4): 1.5 µM
CC50 (MOLT-4; [1]): 20.8 µM
